Numbers after ± are expanded uncertainties.
How the values were obtained:
[1] = xn = mol fraction of the nth substance listed; details: x2 = 0; for surface tension liquid-gas: Tensiometer with plate; for viscosity / mass density: 101 kPa, Liquid; for viscosity: Capillary tube (Ostwald / Ubbelohde) method; for mass density: Vibrating tube method
[2] = refractive index (Na D-line) (dimensionless); xn = mol fraction of the nth substance listed; details: 101 kPa, Liquid, Standard Abbe refractometry, x2 = 0

O [water] + CN1CCNCC1
surface tension liquid-gas ([1]; 293.15 K): 72.09 ± 0.12 mN/m | viscosity ([1]; 298.15 K): 0.894 ± 0.019 mPa·s | surface tension liquid-gas ([1]; 303.15 K): 71.27 ± 0.12 mN/m | viscosity ([1]; 303.15 K): 0.8 ± 0.017 mPa·s | surface tension liquid-gas ([1]; 308.15 K): 70.44 ± 0.12 mN/m | surface tension liquid-gas ([1]; 313.15 K): 69.66 ± 0.12 mN/m | viscosity ([1]; 313.15 K): 0.656 ± 0.014 mPa·s | surface tension liquid-gas ([1]; 318.15 K): 68.83 ± 0.12 mN/m | surface tension liquid-gas ([1]; 323.15 K): 67.95 ± 0.12 mN/m | viscosity ([1]; 325.15 K): 0.55 ± 0.012 mPa·s | mass density ([1]; 325.15 K): 988.03 ± 0.05 kg/m3 | surface tension liquid-gas ([1]; 333.15 K): 66.23 ± 0.12 mN/m | viscosity ([1]; 333.15 K): 0.47 ± 0.01 mPa·s | mass density ([1]; 333.15 K): 983.2 ± 0.05 kg/m3 | viscosity ([1]; 343.15 K): 0.409 ± 0.009 mPa·s | mass density ([1]; 343.15 K): 977.78 ± 0.05 kg/m3 | refractive index ([2]; 293.15 K): 1.333 ± 0.001 | refractive index ([2]; 298.15 K): 1.333 ± 0.001 | refractive index ([2]; 303.15 K): 1.332 ± 0.001 | refractive index ([2]; 308.15 K): 1.331 ± 0.001 | refractive index ([2]; 313.15 K): 1.331 ± 0.001 | refractive index ([2]; 318.15 K): 1.331 ± 0.001 | refractive index ([2]; 323.15 K): 1.329 ± 0.001 | refractive index ([2]; 328.15 K): 1.328 ± 0.001 | refractive index ([2]; 333.15 K): 1.327 ± 0.001
